According to ChEMBL document CHEMBL5465560, “Selectivity Literature for EUbOPEN Chemogenomic Library” (2024):
Values belong to the molecule of their own block, whether it stands above or below them.

Key:
[1] = target: T1, Serine/threonine-protein kinase D3 (Homo sapiens) (UniProt O94806); experiment: Selectivity interaction (Ambit KINOMEscan and KiNATiv profiling in Jurkat cells) EUB0000090b PRKD3; format: cell-based; conditions: at 1 µM
T1 sequence (whole entry): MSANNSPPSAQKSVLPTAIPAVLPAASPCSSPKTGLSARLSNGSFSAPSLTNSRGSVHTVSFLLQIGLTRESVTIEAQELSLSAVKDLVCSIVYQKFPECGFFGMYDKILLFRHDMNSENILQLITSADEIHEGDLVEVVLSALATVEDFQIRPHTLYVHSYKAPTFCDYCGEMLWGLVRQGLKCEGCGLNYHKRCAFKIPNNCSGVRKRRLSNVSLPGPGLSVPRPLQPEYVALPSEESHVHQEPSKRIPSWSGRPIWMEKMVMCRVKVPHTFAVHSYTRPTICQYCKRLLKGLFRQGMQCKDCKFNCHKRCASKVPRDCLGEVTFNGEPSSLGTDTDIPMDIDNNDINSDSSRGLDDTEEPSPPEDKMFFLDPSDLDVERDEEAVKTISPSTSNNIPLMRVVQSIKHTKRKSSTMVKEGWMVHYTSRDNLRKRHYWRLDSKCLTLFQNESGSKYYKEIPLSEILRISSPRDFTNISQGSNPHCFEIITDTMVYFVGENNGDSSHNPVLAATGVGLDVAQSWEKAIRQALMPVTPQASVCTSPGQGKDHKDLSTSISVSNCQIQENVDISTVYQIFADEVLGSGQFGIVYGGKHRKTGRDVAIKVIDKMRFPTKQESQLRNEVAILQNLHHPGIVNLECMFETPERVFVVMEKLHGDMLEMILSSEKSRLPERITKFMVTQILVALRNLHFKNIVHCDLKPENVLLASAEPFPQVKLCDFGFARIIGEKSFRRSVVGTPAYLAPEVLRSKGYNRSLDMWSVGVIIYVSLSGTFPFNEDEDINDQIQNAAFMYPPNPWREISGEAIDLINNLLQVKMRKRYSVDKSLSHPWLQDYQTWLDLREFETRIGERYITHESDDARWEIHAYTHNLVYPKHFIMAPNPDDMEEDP

[2] = target: Tyrosine-protein kinase Lck (Homo sapiens, UniProt P06239); experiment: Selectivity interaction (KinomeScan (DiscoverX)) EUB0000618a LCK; conditions: at 10 µM
[3] = target: Serine/threonine-protein kinase MARK1 (Homo sapiens) (UniProt Q9P0L2); experiment: Selectivity interaction (KinomeScan (DiscoverX)) EUB0000607a MARK1; conditions: at 10 µM
[4] = target: Death-associated protein kinase 3 (Homo sapiens) (UniProt O43293); experiment: Selectivity interaction (KinomeScan (DiscoverX)) EUB0000607a DAPK3; conditions: at 10 µM
[5] = target: Angiopoietin-1 receptor (Homo sapiens) (UniProt Q02763); experiment: Selectivity interaction (KinomeScan (DiscoverX)) EUB0001619a TEK; conditions: at 1 µM
[6] = target: T2, STE20-related kinase adapter protein alpha (Homo sapiens) (UniProt Q7RTN6); experiment: Selectivity interaction (Kinase panel (KiNativ target engagement assay in Jurkat cells)) EUB0001635a STRADA; format: cell-based; conditions: Selectivity number of off-targets 0.0, Selectivity number of targets 233.0, Source Knowledge https://www.sciencedirect.com/science/article/pii/S2451945619300674?via%3Dihub, at 1 µM
T2 sequence (whole entry): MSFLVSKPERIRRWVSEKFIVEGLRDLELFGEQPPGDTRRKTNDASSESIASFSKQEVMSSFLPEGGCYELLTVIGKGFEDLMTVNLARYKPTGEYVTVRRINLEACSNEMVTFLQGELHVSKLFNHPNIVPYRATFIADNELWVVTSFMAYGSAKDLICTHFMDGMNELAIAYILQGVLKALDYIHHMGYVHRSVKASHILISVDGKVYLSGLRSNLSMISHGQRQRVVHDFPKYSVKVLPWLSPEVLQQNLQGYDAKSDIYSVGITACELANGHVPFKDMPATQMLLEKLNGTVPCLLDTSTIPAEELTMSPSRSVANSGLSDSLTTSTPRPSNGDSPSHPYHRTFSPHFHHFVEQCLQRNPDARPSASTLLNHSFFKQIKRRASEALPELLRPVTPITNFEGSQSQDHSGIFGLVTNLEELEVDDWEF

[7] = target: Serine/threonine-protein kinase VRK2 (Homo sapiens) (UniProt Q86Y07); experiment: Selectivity interaction (ActivX KiNativ screen (kinase selectivity in THP-1 cell lysates)) EUB0000639a VRK2; format: subcellular; conditions: lysate
[8] = target: Rho-associated protein kinase 2 (Homo sapiens, UniProt O75116); experiment: Selectivity interaction (ActivX KiNativ screen (kinase selectivity in THP-1 cell lysates)) EUB0000639a ROCK2; format: subcellular; conditions: lysate
[9] = target: T3, Cyclin-dependent kinase-like 5 (Homo sapiens) (UniProt O76039); experiment: Selectivity interaction (Kinase panel (Z-LYTE Assay)) EUB0001632a CDKL5; conditions: at 10 µM
T3 sequence (whole entry): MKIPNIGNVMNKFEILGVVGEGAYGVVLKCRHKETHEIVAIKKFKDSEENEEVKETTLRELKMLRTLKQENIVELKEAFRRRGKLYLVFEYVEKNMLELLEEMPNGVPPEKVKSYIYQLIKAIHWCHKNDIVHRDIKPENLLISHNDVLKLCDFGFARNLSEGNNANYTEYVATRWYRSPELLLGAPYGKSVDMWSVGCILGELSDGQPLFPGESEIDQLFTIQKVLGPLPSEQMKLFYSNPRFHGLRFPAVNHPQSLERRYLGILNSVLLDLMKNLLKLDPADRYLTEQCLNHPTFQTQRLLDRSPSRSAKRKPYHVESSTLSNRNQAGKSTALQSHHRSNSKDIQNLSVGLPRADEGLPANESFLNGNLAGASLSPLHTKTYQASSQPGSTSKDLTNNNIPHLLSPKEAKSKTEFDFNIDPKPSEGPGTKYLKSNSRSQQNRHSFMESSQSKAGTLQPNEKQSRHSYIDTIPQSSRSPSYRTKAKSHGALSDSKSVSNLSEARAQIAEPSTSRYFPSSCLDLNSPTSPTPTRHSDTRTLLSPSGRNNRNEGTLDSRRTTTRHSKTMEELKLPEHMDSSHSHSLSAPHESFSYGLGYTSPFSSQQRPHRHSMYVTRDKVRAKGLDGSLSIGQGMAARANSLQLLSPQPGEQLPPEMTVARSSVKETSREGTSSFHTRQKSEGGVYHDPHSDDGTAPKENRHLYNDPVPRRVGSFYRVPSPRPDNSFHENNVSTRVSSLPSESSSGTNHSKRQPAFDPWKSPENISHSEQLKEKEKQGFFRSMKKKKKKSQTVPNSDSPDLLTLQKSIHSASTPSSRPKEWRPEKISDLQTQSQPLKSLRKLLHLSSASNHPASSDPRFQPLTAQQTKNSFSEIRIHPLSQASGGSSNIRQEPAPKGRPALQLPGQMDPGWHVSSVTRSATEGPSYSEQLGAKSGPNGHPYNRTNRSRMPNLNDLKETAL

Chain of Serine/threonine-protein kinase VRK2 (Homo sapiens) (Q86Y07 whole entry): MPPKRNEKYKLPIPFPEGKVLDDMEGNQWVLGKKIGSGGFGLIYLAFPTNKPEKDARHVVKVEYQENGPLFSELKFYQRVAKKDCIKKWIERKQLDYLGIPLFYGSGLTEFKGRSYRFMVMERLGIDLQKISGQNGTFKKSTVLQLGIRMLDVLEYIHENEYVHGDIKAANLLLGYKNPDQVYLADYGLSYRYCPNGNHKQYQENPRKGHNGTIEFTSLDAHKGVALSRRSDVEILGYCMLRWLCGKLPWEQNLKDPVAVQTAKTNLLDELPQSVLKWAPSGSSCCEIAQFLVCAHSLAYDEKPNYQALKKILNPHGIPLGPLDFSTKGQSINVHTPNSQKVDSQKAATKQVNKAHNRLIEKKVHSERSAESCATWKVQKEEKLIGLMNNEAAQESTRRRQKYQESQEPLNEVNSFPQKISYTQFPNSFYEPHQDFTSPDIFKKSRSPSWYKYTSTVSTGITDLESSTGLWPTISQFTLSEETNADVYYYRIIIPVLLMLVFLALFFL
Chain of Rho-associated protein kinase 2 (O75116 whole entry, looked up): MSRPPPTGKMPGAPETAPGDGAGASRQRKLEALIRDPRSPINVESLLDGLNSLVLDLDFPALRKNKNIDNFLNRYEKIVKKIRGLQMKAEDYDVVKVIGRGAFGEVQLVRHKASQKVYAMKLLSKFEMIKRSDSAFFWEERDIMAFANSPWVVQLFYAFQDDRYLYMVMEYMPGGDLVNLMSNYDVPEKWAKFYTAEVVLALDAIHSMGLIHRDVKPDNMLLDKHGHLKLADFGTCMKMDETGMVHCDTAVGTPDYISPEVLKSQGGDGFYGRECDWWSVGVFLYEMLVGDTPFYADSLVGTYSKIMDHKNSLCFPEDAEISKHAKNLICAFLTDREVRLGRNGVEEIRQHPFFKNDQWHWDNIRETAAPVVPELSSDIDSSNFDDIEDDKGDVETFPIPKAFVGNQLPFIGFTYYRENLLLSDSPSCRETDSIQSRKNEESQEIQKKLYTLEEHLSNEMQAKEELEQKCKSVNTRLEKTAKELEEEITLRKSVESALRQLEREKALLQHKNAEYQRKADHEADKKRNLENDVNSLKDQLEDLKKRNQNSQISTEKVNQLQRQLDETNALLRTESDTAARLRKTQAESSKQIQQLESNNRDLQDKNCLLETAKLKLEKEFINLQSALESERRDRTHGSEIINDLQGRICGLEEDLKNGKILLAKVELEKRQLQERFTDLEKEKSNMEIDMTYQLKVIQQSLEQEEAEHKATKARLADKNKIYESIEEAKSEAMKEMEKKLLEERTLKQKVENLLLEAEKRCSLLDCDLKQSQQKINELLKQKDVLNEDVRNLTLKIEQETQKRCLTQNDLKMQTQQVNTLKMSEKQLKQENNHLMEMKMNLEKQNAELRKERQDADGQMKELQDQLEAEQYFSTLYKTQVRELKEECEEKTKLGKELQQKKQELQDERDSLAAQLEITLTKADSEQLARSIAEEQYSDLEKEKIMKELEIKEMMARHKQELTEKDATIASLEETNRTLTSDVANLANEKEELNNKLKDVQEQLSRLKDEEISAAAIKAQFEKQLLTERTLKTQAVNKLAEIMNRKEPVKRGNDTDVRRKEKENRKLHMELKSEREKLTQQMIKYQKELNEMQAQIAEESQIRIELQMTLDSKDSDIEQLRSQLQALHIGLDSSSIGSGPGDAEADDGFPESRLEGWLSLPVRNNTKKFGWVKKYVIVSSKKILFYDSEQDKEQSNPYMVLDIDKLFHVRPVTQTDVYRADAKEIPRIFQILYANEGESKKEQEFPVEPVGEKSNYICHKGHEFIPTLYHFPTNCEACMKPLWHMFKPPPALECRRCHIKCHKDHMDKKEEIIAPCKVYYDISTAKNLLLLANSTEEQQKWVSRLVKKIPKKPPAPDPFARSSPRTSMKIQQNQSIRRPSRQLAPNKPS
Chain of Angiopoietin-1 receptor (Homo sapiens) (Q02763 whole entry): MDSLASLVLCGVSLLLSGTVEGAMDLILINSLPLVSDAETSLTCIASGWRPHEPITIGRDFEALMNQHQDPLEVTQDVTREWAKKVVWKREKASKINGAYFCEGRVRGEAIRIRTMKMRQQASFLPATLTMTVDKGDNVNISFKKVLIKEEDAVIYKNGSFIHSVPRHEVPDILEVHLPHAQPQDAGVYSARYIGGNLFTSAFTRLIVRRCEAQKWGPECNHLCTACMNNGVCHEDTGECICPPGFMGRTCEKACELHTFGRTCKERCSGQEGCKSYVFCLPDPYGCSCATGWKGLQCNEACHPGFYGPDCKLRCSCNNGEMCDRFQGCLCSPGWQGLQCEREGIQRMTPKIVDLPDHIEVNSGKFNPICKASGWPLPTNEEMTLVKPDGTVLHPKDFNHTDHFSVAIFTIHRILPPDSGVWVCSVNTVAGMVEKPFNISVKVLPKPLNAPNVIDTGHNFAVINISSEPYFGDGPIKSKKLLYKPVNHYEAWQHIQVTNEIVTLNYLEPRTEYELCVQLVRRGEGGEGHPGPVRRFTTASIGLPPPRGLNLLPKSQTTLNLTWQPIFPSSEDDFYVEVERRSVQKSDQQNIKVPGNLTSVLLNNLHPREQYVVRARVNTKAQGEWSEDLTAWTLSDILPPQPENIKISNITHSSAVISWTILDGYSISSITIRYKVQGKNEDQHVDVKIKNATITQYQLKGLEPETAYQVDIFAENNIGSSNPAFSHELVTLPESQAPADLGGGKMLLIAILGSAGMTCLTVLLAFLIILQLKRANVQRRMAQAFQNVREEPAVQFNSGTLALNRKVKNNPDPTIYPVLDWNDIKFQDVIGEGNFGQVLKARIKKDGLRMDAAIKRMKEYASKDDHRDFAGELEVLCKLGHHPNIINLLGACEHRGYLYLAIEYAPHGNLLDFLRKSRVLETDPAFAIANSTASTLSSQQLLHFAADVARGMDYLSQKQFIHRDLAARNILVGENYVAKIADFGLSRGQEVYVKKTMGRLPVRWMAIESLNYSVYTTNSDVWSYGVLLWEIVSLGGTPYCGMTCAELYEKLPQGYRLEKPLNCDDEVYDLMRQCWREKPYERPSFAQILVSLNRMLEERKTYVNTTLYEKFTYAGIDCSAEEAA
Chain of Serine/threonine-protein kinase MARK1 (Homo sapiens) (Q9P0L2 whole entry, looked up): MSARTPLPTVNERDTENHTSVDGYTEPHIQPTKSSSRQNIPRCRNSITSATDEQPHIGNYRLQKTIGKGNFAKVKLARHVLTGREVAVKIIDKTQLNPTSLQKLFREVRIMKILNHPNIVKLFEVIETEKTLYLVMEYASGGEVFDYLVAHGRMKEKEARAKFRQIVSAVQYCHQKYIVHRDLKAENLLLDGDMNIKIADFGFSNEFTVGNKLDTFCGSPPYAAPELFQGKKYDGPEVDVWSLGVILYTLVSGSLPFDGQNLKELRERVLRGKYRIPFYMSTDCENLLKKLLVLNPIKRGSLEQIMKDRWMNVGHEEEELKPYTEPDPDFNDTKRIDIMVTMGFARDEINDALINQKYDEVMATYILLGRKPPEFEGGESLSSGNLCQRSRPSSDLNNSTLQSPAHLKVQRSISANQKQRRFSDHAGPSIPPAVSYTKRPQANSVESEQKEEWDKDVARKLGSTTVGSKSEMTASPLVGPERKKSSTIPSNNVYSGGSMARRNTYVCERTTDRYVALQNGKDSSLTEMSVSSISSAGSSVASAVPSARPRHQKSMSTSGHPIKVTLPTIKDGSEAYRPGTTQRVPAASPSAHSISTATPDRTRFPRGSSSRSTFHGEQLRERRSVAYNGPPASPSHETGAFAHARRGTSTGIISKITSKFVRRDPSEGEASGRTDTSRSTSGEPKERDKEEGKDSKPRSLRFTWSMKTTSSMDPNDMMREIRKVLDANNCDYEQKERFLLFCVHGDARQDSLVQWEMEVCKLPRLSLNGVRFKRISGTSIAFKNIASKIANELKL
Chain of Death-associated protein kinase 3 (Homo sapiens) (O43293 whole entry, looked up): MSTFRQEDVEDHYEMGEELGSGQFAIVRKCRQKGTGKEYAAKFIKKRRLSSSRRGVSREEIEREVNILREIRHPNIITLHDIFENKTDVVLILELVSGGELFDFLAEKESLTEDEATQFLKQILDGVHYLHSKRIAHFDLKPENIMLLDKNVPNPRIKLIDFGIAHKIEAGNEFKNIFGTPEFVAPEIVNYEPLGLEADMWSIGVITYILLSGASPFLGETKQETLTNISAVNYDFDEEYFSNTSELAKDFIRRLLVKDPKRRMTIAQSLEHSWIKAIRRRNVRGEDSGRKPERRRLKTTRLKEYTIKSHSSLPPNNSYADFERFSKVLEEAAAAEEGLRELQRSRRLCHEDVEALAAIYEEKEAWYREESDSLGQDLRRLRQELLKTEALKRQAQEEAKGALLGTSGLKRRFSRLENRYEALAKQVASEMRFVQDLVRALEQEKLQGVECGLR
Chain of Tyrosine-protein kinase Lck (P06239 2-509 limits assumed): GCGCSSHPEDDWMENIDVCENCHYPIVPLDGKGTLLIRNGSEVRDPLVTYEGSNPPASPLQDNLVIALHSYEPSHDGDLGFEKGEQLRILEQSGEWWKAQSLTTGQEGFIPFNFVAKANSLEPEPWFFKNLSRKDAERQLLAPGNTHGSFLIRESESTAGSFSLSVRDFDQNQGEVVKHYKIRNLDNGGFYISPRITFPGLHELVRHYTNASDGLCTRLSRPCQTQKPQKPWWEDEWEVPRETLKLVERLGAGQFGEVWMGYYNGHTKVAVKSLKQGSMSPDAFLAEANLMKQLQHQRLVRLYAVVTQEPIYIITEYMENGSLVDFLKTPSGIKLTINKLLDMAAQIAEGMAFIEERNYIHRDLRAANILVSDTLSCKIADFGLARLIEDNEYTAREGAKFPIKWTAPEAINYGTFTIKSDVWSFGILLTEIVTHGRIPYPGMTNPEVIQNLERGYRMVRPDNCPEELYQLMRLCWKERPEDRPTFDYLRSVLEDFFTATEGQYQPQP

SMILES: CN(C)C/C=C/C(=O)Nc1ccc(C(=O)N2CCCC(Nc3ncc(Cl)c(-c4c[nH]c5ccccc45)n3)C2)cc1 (configuration not stated)
% of control [1]: 33%

SMILES: O[C@H]1CC[C@H](Nc2ncc3nc(Nc4c(F)cc(F)cc4F)n([C@H]4CCOC4)c3n2)CC1
% of control [2]: 57%

SMILES: CNC(=O)Nc1ccc(-c2nc(N3CC4CCC(C3)O4)c3cnn(C4CCC5(CC4)OCCO5)c3n2)cc1
% of control [3]: 100%
% of control [4]: 100%

SMILES: N#Cc1cccc(-c2c[nH]c3ncnc(N4CCOCC4)c23)c1
% of control [5]: 100%

SMILES: C=CC(=O)Nc1ccc(C(=O)Nc2[nH]nc3c2CN(C(=O)N[C@H](CN(C)C)c2ccccc2)C3(C)C)cc1
% of engagement [6]: 2.1%

% of inhibition ([7]; at 0.01 µM): -16.6%
% of inhibition ([7]; at 0.04 µM): -6%
% of inhibition ([7]; at 0.2 µM): -28.4%
% of inhibition ([7]; at 1 µM): -14.8%
% of inhibition ([7]; at 5 µM): 8.1%
% of inhibition ([8]; at 0.01 µM): 12.6%
% of inhibition ([8]; at 0.04 µM): -4.3%
% of inhibition ([8]; at 0.2 µM): -10.6%
% of inhibition ([8]; at 1 µM): 18.3%
% of inhibition ([8]; at 5 µM): 53.9%
SMILES: CC[C@@H]1[C@H](F)C(=O)N[C@@H]1COc1nccc2cc(C(N)=O)c(OC)cc12 [ZIMLOVISERTIB]

% of control [9]: 4.16%
SMILES: Cn1cc(-n2cnc3c(NCc4nc5cc(Cl)c(Cl)cc5[nH]4)nc(N4CCOCC4)nc32)cn1
